Experimental data: patent publication US20260216374A1, “POU5F1B INHIBITORS” (ECOLE POLYTECHNIQUE FEDERALE DE LAUSANNE (EPFL), priority 2023, published 2026)
“Also recorded” adds a separate entry of the source. Residues, ends and D or L forms follow the SMILES beside them. *: point of attachment. Cbz = O=C(OCc1ccccc1)*

Tests used:
Type in all cases: cell-based, human
POU5F1B [1] = assay: Radiolabelling pulse-chase experiment to determine POU5F1B half-life; settings: POU5F1B-overexpressing SW480 cells; ROCK inhibitors 20 μM 24 hours; MG132 10 μM 3 hours
Description: Radiolabelling experiment to determine POU5F1B half-life. POU5F1B-overexpressing SW480 cells treated for 24 hours with capivasertib (20 μM), oxa-06 (20 μM) and Y-27632 (20 μM) ROCK inhibitors, and 3 hours with MG132 (10 μM) proteasome inhibitor, were washed with methionine/cysteine-free medium, incubated for a 20-min pulse at 37° C. with 50 μCi/ml [35S]methionine/cysteine (Hartman Analytics), washed, and further incubated for different times at 37° C. in complete medium with a 10-fold excess of nonradioactive methionine and cysteine. POU5F1B protein was HA-immunoprecipitated, eluted and loaded in SDS-PAGE gels, and autoradiographies were quantified using the Typhoon Imager (Image QuantTool, GE healthcare).

POU5F1B [2] = assay: Immunoprecipitation of HA-tagged POU5F1B followed by Western blot with phosphoserine-specific antibody; settings: HA-tagged POU5F1B overexpressed in SW480 cells
Description: Immunoprecipitation. Cells were washed three times PBS, lysed 30 min at 4° C. in the following Buffer (0.5% Nonidet P-40, 500 mM Tris pH 7.4, 20 mM EDTA, 10 mM NaF, 2 mM benzamidin and protease inhibitor cocktail (Roche)), and centrifuged 3 min at 5000 rpm. Supernatants were subjected to preclearing with mouse IgG-agarose beads (Sigma A0919) prior immunoprecipitation reaction. Supernatants were incubated overnight with anti HA-agarose beads (Sigma A2095). Similar elution volumes and protein quantities, for the IPs and the inputs, respectively, were submitted to SDS-PAGE and analyzed by immunoblotting using anti-ubiquitin […] (Santa Cruz Biotechnology sc-8017, 1:1,000), HRP-conjugated anti-HA (clone 3F10 Roche 12013819001, 1:1,000), anti-phosphoserine ([…], Sigma) and HRP-conjugated anti-mouse antibody.

POU5F1B-DCK = assay: Dose response assay, BVdU survival of POU5F1B-DCK-overexpressing SW480 cells (POU5F1B-DCK degradation); settings: 0.39-25 μM compound, 500 μM BVdU, reading at 96 h and 120 h
Description: Dose response assays. POU5F1B-DCK-, DCK-overexpressing, and wild type SW480 cells were seeded in 96-well plates at a cell density of 2,000 cells/well in 100 μl of media. At the same time of cell seeding, 100 μM Capivasertib, OXA-06 and Laurocapram dissolved in DMSO were diluted in medium and 20 μl were dispensed in the 96-wells to achieve final concentrations of 0.39, 0.78, 1.56, 3.12, 6.25, 12.5 and 25 μM, keeping the final concentration of DMSO at 0.2% in each well. The next day, 500 μM BVdU (Brivudine H27853, Thermo Fisher) was added in all wells except for non-treated ones. Plate reading was done at 96 h and 120 h post BvDU treatment by measuring fluorescence after incubating the cells with PrestoBlue™ (A13262, Invitrogen) for 30 min.

POU5F1B [3] = assay: Immunofluorescence of HA-tagged POU5F1B localization in SW480 cells; settings: TAK-243 at 1 μM for 5 hours
Description: Immunofluorescence. Cell lines were plated on glass coverslips into 24-well plates and cultured for 3 days up to 70% confluence in 500 ng ml^−1 doxycycline-containing medium. When needed, cells were treated with TAK-243, inhibitor of the ubiquitin activating enzyme, at 1 μM for 5 hours. Growth medium was refreshed (1 ml) prior a 15 min fixation with 1 ml 8% paraformaldehyde (PFA) added dropwise. Cells were washed three times with PBS, permeabilized with 0.1% saponin PBS for 20 min, and blocked with 1% BSA 0.1% saponin PBS for 30 min before incubation with anti-HA (bioLegend, Covance catalog #MMS-101P, 1:1,000) antibody in 1% BSA 0.1% saponin PBS 2 h at room temperature (RT) under agitation. Samples were washed three times with PBS and incubated with Alexa 647-conjugated (A647) anti-mouse antibody (1:1,000) in 1% BSA 0.1% saponin PBS for 40 min at RT. Three final washes were performed before mounting the slides in Vectashield with DAPI (Vector Laboratories). Images were acquired on a ZEISS LSM 700 confocal microscopy and analyzed with Fiji software.

Structure (SMILES) | half-life of POU5F1B (pulse-chase) (POU5F1B [1]) | wild type POU5F1B phosphoserine signal (POU5F1B [2]) | POU5F1B(-DCK) degradation, read as cell survival after BVdU treatment (POU5F1B-DCK) | POU5F1B subcellular localization (POU5F1B [3])
CC(C)C[C@@H](C=O)NC(=O)[C@H](CC(C)C)NC(=O)[C@H](CC(C)C)NC(=O)OCc1ccccc1 [MG132] (Cbz-Leu-Leu-Leu-aldehyde) | stabilized |  |  | 
Fc1ccccc1CNCc1ccc(-c2ccnc3[nH]ccc23)cc1 [OXA-06] | reduced | decreases | degraded | 
NS(=O)(=O)OC[C@H]1C[C@@H](Nc2ccnc3cc(-c4cccc(SC(F)(F)F)c4)nn23)[C@H](O)[C@@H]1O [TAK-243] |  |  |  | triggers the re-localization of POU5F1B to the nucleus; also recorded: re-localization from the cytoplasm to the nucleus
C[C@@H](N)[C@H]1CC[C@H](C(=O)Nc2ccncc2)CC1 [Y-27632] | reduced | decreases |  | 
NC1(C(=O)N[C@@H](CCO)c2ccc(Cl)cc2)CCN(c2nc[nH]c3nccc2-3)CC1 [capivasertib] | reduced | decreases | degraded | 
CCCCCCCCCCCCN1CCCCCC1=O [laurocapram] |  |  | degraded | 
